Measurements reported in PubChem BioAssay AID651861 (The Scripps Research Institute Molecular Screening Center, 2012).

Legend:
Test in all cases: binding mode on PAD1, PAD2, PAD3, biochemical, colorimetric, substrate dialysis, late-stage follow-up (AID 651861); call rule not given here
[1] = biological target: Protein-arginine deiminase type-2 (Homo sapiens) (UniProt Q9Y2J8); settings: recombinant PAD1-3, post-dialysis BAEE citrulline colorimetric; PAD2; at 100 µM; stronger effect = lower value
[2] = biological target: Protein-arginine deiminase type-3 (Homo sapiens) (UniProt Q9ULW8); settings: recombinant PAD1-3, post-dialysis BAEE citrulline colorimetric; PAD3; at 100 µM; stronger effect = lower value
[3] = biological target: Protein-arginine deiminase type-1 (Homo sapiens) (UniProt Q9ULC6); settings: recombinant PAD1-3, post-dialysis BAEE citrulline colorimetric; PAD1; at 100 µM; stronger effect = lower value

Measured: residual activity after dialysis

Chain of Protein-arginine deiminase type-3 (Homo sapiens) (Q9ULW8 whole entry, looked up): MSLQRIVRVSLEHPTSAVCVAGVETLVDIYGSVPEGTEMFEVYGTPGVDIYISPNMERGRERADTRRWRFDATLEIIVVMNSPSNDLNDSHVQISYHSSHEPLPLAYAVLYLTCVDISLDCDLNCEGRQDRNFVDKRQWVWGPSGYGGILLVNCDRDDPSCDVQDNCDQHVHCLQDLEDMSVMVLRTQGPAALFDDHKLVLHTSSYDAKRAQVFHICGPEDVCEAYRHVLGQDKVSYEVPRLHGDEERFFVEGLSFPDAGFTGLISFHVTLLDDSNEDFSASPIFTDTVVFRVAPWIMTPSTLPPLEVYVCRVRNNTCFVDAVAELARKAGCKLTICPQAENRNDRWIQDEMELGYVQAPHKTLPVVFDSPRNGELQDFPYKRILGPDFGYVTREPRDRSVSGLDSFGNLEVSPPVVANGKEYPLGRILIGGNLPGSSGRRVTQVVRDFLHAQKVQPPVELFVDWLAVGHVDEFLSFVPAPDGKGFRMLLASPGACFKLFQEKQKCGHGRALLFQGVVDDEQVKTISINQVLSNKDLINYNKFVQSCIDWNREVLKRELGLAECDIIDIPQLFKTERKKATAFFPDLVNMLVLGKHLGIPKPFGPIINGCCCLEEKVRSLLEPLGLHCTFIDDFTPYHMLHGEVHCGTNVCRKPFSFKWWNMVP
Chain of Protein-arginine deiminase type-1 (Homo sapiens) (Q9ULC6 whole entry, looked up): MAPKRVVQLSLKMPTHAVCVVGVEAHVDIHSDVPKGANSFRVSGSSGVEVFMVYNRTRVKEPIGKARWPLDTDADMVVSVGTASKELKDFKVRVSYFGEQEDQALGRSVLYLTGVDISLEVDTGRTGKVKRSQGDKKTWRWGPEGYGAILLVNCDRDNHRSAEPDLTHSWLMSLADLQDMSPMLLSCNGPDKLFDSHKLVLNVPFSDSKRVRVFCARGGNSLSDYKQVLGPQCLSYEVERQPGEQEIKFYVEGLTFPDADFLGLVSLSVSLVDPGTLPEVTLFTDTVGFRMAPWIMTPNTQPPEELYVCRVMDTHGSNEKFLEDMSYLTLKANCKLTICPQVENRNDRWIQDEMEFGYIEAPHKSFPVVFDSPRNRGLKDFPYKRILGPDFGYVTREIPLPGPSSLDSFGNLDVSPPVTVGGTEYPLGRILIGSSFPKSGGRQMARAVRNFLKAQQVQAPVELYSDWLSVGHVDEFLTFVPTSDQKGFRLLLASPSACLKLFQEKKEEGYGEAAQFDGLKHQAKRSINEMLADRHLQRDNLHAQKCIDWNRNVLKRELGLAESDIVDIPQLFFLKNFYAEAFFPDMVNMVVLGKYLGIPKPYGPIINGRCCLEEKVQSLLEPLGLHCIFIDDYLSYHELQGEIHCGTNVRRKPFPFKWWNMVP
Chain of Protein-arginine deiminase type-2 (Homo sapiens) (Q9Y2J8 whole entry, looked up): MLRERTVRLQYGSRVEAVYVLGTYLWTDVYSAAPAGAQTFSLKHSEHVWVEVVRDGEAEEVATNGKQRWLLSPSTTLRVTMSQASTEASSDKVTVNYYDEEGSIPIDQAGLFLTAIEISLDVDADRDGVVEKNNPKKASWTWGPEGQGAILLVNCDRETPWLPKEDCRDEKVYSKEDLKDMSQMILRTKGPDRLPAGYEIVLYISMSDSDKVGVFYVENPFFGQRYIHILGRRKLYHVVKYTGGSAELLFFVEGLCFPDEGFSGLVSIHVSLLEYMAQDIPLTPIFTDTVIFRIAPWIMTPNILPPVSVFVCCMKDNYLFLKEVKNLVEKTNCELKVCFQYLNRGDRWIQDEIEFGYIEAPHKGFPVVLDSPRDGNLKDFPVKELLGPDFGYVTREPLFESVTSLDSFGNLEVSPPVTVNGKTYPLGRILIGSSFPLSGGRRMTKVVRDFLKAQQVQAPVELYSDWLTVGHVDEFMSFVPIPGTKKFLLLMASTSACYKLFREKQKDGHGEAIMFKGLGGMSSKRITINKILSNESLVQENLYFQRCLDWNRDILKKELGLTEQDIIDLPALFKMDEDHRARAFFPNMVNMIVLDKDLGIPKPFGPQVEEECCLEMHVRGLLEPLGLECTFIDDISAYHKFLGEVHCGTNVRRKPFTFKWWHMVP

NC1=CC(=O)c2ccc(-c3cccc(C(=O)O)n3)nc2C1=O
active: [1] 5.3% | [2] 1.2% | [3] 10.2%
